The source of these data is US10766869B2, “Triazoles for the treatment of demyelinating dieases” (Vertex Pharmaceuticals Incorporated, priority 2015, dated 2020).

Where two headings read alike, the source gives them in different places.

This assay concerns primary rat mixed cortical cells. The experiment in a line: In vitro myelination assay (MBP positive myelin strands, fold myelin pixels above background). The class given is cell-based. The following applies: for fold induction at 1 µM / fold induction at 10 µM: Rattus norvegicus. The text has this:
In Vitro Myelination Assay
Compounds were screened for their ability to induce myelination using a primary rat mixed cortical cell culture assay, which contains neurons, oligodendrocyte precursor cells, oligodendrocytes, astrocytes and microglia. The assay quantifies myelination by measuring myelin basic protein (MBP) immunofluorescent positive myelin strands from images taken using a Cellomics Array Scan (model Arrayscan VTI HCS Reader) or a Molecular Devices Image Xpress (model IXM XL) high content imager. The myelin strands were quantitated using a custom created myelin detection software program. Test compounds were dissolved in DMSO to make a 10 mM initial stock solution. Dilutions were made in myelination medium to obtain the final solutions for the assay and were tested in primary rat mixed cortical cells at selected doses.
Primary rat mixed cortical cells were prepared from harvested cerebral cortices from postnatal day 1 (P1) rats (P1 Rat CD® IGS pups) were purchased from Charles River) in Complete Dissociation Medium, wherein the meninges were removed and the cortical tissue chopped with a razor blade into ˜1 mm^3 pieces. Tissue from 1-3 pups was collected and placed into 15 ml conical tubes in a total volume of 5 ml of Complete Dissociation Medium. Activated papain (3 ml) was added to each 15 ml conical tube and tissue was incubated at 37° C. for 30 minutes. After the 30 minute incubation, DNase (Sigma D4527; 75 μl of a 1 mg/ml stock) was added to each tube, followed by mechanical trituration using a 2 ml serological pipette and autopipettor to gently dissociate the tissue. Following trituration, larger tissue pieces were allowed to settle by gravity, and the supernatant containing dissociated cells was transferred to a 50 ml conical tube with 4 ml of trypsin inhibitor. Cells were pelleted by centrifugation, resuspended in myelination medium and filtered through a 40 μm filter. Cells were then seeded in 96-well plates (BD Biosciences, Black, PDL-coated, Cat. No. 356640) at 87,500-95,000 cells/well in a final volume of 200 μl of Myelination Medium in the presence or absence of compound and cultured for 14 days in a humidified 37° C. incubator with 5% CO2. Half the medium was removed and replaced with fresh medium containing 1× compound on days 6 and 10. Using a Biotek automatic plate washer (model Biomek® FXP Laboratory Automation Workstation), cells were fixed with 4% paraformaldehyde on day 14, washed with PBS and blocked in 5% normal goat serum (Vector Laboratories, S-1000) in 0.1% PBS-TritonX-100 (PBST) for 1 hour. Cells were stained with 1:500 anti-MBP (Covance, cat # SMI99) primary antibody in 1% normal goat serum in 0.1% PBST for 2 hours at room temperature followed by 2 washes with PBST. A final incubation in secondary antibody (1:1000, Invitrogen, Alexa-488 anti-mouse IgG2b) and 1:10,000 Hoechst dye in 1% normal goat serum in 0.1% PBST was performed for 2 hours at room temperature. Plates were washed with PBS and then scanned on a Cellomics Array Scan using a 10× objective (25 images per well) or the Image Xpress using a 10× objective (9 image per well). Images were analyzed using Vertex myelin detection software (described below) to quantify total MBP myelin pixels per well. Fold myelin pixels above background at two concentrations (1.0 μM and 10.0 μM) relative to baseline of no added compound are reported below in Table 4. Standard deviation for each compound concentration was calculated using all replicates and using a standard deviation formula commonly used in the art.
One of skill in the art would recognize that for this type of primary neuronal mixed cell assay variability between different assay runs is to be expected even though the protocol is the same for each assay run. For instance, variability may be due to small differences in cell viability, cell density, age of the animals, etc.
Vertex Myelin Detection Software: […]

Where [1] appears, read: 1.0 μM compound, relative to baseline of no added compound, read-out: Fold myelin pixels above background, 1.0 μM.
Setting [2] is: 10.0 μM compound, relative to baseline of no added compound, read-out: Fold myelin pixels above background, 10.0 μM.
Where [3] appears, read: 1.0 μM compound, relative to baseline of no added compound, read-out: Fold myelin pixels above background.
Where [4] appears, read: 10.0 μM compound, relative to baseline of no added compound, read-out: Fold myelin pixels above background.

`Cc1cc(Nc2ncn(-c3ccccc3)n2)cc(N2CCN(C3CC3)CC2)c1` [Compound 149, N-[3-(4-cyclopropylpiperazin-1-yl)-5-methyl-phenyl]-1-phenyl-1,2,4-triazol-3-amine]: under setting [1], the fold induction at 1 µM is 1000 to 10000. Further, the fold induction at 10 µM under setting [2] fell in the range of 10 to 100.

`Fc1cc(F)cc(-n2cnc(Nc3cc(Cl)cc(N4CC(N5CCOCC5)C4)c3)n2)c1` [Compound 723, N-[3-chloro-5-(3-morpholinoazetidin-1-yl)phenyl]-1-(3,5-difluorophenyl)-1,2,4-triazol-3-amine]: the fold induction at 1 µM under setting [3] was 10 to 100. Moreover, the fold induction at 10 µM under setting [4] was in the range of 100 to 1000.

With `Cc1cc(Nc2ncn(-c3ccccc3)n2)cc(N2CCN(C3CCC3)CC2)c1` [Compound 290, N-[3-(4-cyclobutylpiperazin-1-yl)-5-methyl-phenyl]-1-phenyl-1,2,4-triazol-3-amine], the fold induction at 1 µM under setting [1] was 1000 to 10000. Further, the fold induction at 10 µM under setting [2] is 1000 to 10000.

On to `Cc1cc(Nc2ncn(-c3ccc(F)c(F)c3)n2)cc(OCC2CC(F)(F)C2)c1` [Compound 640, N-[3-[(3,3-difluorocyclobutyl)methoxy]-5-methyl-phenyl]-1-(3,4-difluorophenyl)-1,2,4-triazol-3-amine], for which the fold induction at 1 µM under setting [3] is 10 to 100. Moreover, the fold induction at 10 µM under setting [4] fell in the range of 1 to 10.

In the case of `CN1CCN(c2cc(Nc3ncn(-c4cc(F)cc(F)c4)n3)cc(N3CCN(C)CC3)c2)CC1` [Compound 657, N-[3,5-bis(4-methylpiperazin-1-yl)phenyl]-1-(3,5-difluorophenyl)-1,2,4-triazol-3-amine], the fold induction at 1 µM under setting [3] was in the range of 1 to 10. Moreover, the fold induction at 10 µM under setting [4] is no more than 1.

For the molecule `Cc1cc(Nc2ncn(-c3ccc(F)c(F)c3)n2)cc(O[C@H]2CCN(C3COC3)C2)c1` [Compound 52, 1-(3,4-difluorophenyl)-N-[3-methyl-5-[(3S)-1-(oxetan-3-yl)pyrrolidin-3-yl]oxy-phenyl]-1,2,4-triazol-3-amine], the fold induction at 1 µM under setting [1] was in the range of 1000 to 10000. Also, under setting [2], the fold induction at 10 µM is no more than 1.

Take `Cc1cc(Nc2ncn(-c3cccc(F)c3)n2)nc(N2CC(N3CCOCC3)C2)c1` [Compound 538, N-[1-(3-fluorophenyl)-1,2,4-triazol-3-yl]-4-methyl-6-(3-morpholinoazetidin-1-yl)pyridin-2-amine]: the fold induction at 1 µM under setting [3] was in the range of 1 to 10. The fold induction at 10 µM under setting [4] fell in the range of 1 to 10.

For the molecule `Cc1cc(Nc2ncn(-c3ccc(Cl)c(F)c3)n2)nc(N2CCN(C3COC3)CC2)c1` [Compound 749, N-[1-(4-chloro-3-fluoro-phenyl)-1,2,4-triazol-3-yl]-4-methyl-6-[4-(oxetan-3-yl)piperazin-1-yl]pyridin-2-amine], under setting [3], the fold induction at 1 µM lay within 10 to 100. Further, the fold induction at 10 µM under setting [4] is 10 to 100.

For the molecule `N#Cc1cc(Nc2ncn(-c3cccnc3)n2)cc(N2CCN(C3COC3)CC2)c1` [Compound 842, 3-[4-(oxetan-3-yl)piperazin-1-yl]-5-[[1-(3-pyridyl)-1,2,4-triazol-3-yl]amino]benzonitrile], where the note is “1.0 μM compound, read-out: Fold myelin pixels above background relative to baseline of no added compound”, the fold induction at 1 µM was 1 to 10. Besides, the fold induction at 10 µM (10.0 μM compound, read-out: Fold myelin pixels above background relative to baseline of no added compound) is no more than 1.

`Cc1cc(Nc2ncn(-c3cc(F)cc(F)c3)n2)cc([C@@H]2CCN(C3COC3)C[C@@H]2F)c1.Cc1cc(Nc2ncn(-c3cc(F)cc(F)c3)n2)cc([C@H]2CCN(C3COC3)C[C@H]2F)c1` [Compound 208, 1-(3,5-difluorophenyl)-N-[3-[(3S,4R)-3-fluoro-1-(oxetan-3-yl)-4-piperidyl]-5-methyl-phenyl]-1,2,4-triazol-3-amine; 1-(3,5-difluorophenyl)-N-[3-[(3R,4S)-3-fluoro-1-(oxetan-3-yl)-4-piperidyl]-5-methyl-phenyl]-1,2,4-triazol-3-amine]: the “Fold myelin pixels above background, 1.0 μM” value (1.0 μM compound, relative to baseline of no added compound) was “+++ (>100 to 1000x)”. The “Fold myelin pixels above background, 10.0 μM” value (10.0 μM compound, relative to baseline of no added compound) is listed as “− (≤1)”.

For `Fc1ccc(-n2cnc(Nc3cc(C(F)(F)F)cc(N4CCN(C5COC5)CC4)n3)n2)cc1` [Compound 728, N-[1-(4-fluorophenyl)-1,2,4-triazol-3-yl]-6-[4-(oxetan-3-yl)piperazin-1-yl]-4-(trifluoromethyl)pyridin-2-amine], under setting [3], the fold induction at 1 µM lay in the range of 10 to 100. Under setting [4], the fold induction at 10 µM was no more than 1.
